# A melting point compilation (Tetko et al.; mined from patent text by program, amines drawn as free bases though some values may be those of a salt)
row,Structure (SMILES),melting point
1,Cc1ncc(CN2CC=C(/C=C/c3ccccc3)CC2)c(N)n1,199 to 203 °C
2,O=C(O)Cc1c[nH]c(-c2cc3nc(C(=O)O)c(=O)[nH]c3cc2[N+](=O)[O-])n1,> 300 °C
3,CCOC(=O)CCC(C#N)(c1ccc(C(F)(F)F)cc1)N1CCOCC1 (centres undefined),96 to 97 °C
4,CC1OC(OCc2ccccc2)C(F)C(O)C1O (centres undefined),124 to 126 °C
5,CCOC(=O)C(C)(C(=O)OCC)c1ccc(N)c(C(F)(F)F)c1,73 to 75 °C
6,CC(=O)OCCCCCCSCC(=O)c1ccc2c(c1)CC(=O)N2,86 to 87 °C
7,CCn1ncc2c1ncc1c(=O)n3nc(C)cc3n(C)c12,306 to 307 °C
8,CCCC(=O)Nc1cscn1,63 to 66 °C
9,N#Cc1ncn(C2OC(COC(=O)c3ccccc3)C(OC(=O)c3ccccc3)C2OC(=O)c2ccccc2)c1C#N (centres undefined),68 to 72 °C
10,CCC(O)(c1c(C(C)C)nn2ccccc12)C(C)C (centres undefined),96 to 98 °C
11,C=C1CCC2(Cc3ccccc3)C3Cc4ccc(O)cc4C2(CCN3CC2CC2)C1 (centres undefined),212 °C
12,Nc1c(Cl)cc(C(=O)OC2CCN(CCCC(=O)c3ccc4[nH]c(=O)[nH]c4c3)CC2)c2c1CCO2,273 °C
13,COc1sc(-c2cc[nH]n2)c2c1C(=O)CC(C)(C)C2,202 to 204 °C
14,O=c1[nH]c2ccc(S(=O)CCN3CCC(Cc4ccc(Cl)c(Cl)c4)CC3)cc2o1 (centres undefined),189 to 191 °C
15,Cn1ncc2c1CC(C)(C)c1cnn(C)c1-2,105 to 108 °C
16,CCCCCNC(=O)[C@@H]1CCCN1C(=O)[C@H](C)NC(=O)CC,105 to 108 °C
17,Cc1ccc(N)c(C(N)=O)c1,171 to 174 °C
18,CN(c1cccc2cc(C3=NCC(CC(=O)N4CCS(=O)(=O)CC4)S3)[nH]c12)S(=O)(=O)c1cccs1 (centres undefined),158 °C
19,CCOC(=O)C(C#N)(CCCN(C)CCc1ccc(OC)c(OC)c1)c1ccc(OC)c(OC)c1 (centres undefined),77 to 78 °C
20,O=[N+]([O-])c1ccc2c(c1)OC(CO)CO2 (centres undefined),132 to 135 °C
21,O=C1CCCN1CC1(O)CCN(c2ccnc(C(F)(F)F)n2)CC1,170 to 172 °C
22,Cc1nc(CCOCCCCCCNCC(O)c2cc(Cl)c(N)c(Cl)c2)cs1 (centres undefined),67 to 69 °C
23,C=CCC12CC(c3ccccc31)c1ccccc12,42 to 43 °C
24,NNc1ncc(-c2cccc(C(F)(F)F)c2)nn1,229 to 232 °C
25,O=C(NO)C(=O)Nc1ccccc1,165 to 167 °C
26,COC(=O)C=Cc1ccc(Br)cc1,80 °C
27,O=c1[nH]nc(-c2ccc(C(F)(F)F)cc2)o1,214 to 216 °C

row,Structure (SMILES),melting point
1,O=C1C=c2c(c3[nH]c4c(c3c3c2=CN=C3)CCCC4)C1,> 300 °C
2,CCOCc1nc2c(N)nc3ccccc3c2n1CC1(NC(=O)NC(C)C)CCCCC1,135 to 160 °C
3,COc1cccc(CN2CCc3cc(O)c(OC)cc3C2C)c1 (centres undefined),97 to 99 °C
4,COc1ccc(C2CCCC(=O)O2)cc1 (centres undefined),57.5 to 59.5 °C
5,O=CC1C(=O)NC(=O)N1CCCCCCC(=O)O (centres undefined),224 to 225 °C
6,CC1=CC(OC(=O)c2ccc(N)cc2N)C(O)C(C)(C)CC1=O (centres undefined),154 to 156 °C
7,O=C1c2c(Cl)cccc2-n2cnc(-c3nc(C4CCC4)no3)c2[C@@H]2CCCN12,183 to 185 °C
8,CCCc1[nH]c2cc(C(=O)OC)ccc2c1C(=O)C1CC1,152 to 154 °C
9,O=C1c2cc(F)ccc2-n2cnc(C(=O)n3ccnc3)c2[C@@H]2CCCN12,206 to 207 °C
10,CCn1c(C)nc2cc(S(C)(=O)=O)c(Cl)c([N+](=O)[O-])c21,75 to 79 °C
11,Cc1cc2[nH]cc(CSCCN3CC=C(c4ccccc4)CC3)c2cc1C,123 to 124 °C
12,Cc1c(OCC(F)(F)F)ccnc1CS(=O)c1nc2cc(N3CCCCC3)c(F)cc2[nH]1 (centres undefined),99 to 100 °C
13,N#Cc1c[nH]c2cccc(OCC3CO3)c12 (centres undefined),116 to 120 °C
14,CC[C@@]12CCCN1[C@@H](C(Cl)(Cl)Cl)OC2=O,76 to 77 °C
15,O=C(O)C=CC(=O)Nc1ccc(C(=O)O)cc1,217 to 219 °C
16,C=CC(=O)Oc1ccc(-c2cccc(-c3ccc(OC(=O)C=C)cc3)c2)cc1,106 °C
17,Cc1c(OCC#N)cc2c(c1Cl)C(=O)C1(CCCC1)C2=O,137 to 139 °C
18,Nc1nc2ccccc2c2c1nc(CNC(=O)C1CC1)n2CC1(O)CCCCC1,> 250 °C
19,COc1ccc(C2Cc3cc(C(F)(F)F)ccc3NC(=O)C2CSC)cc1 (centres undefined),224 to 226 °C
20,COc1cc2c(cc1OC)C(c1cccc(Cl)c1)=NN=C(C)C2,166 to 168 °C
21,Cn1nnnc1-c1nccn1Cc1ccccc1,110 to 111 °C
22,COC(=O)NC[C@H]1CN(c2ccc3c(c2)CCCc2cnoc2-3)C(=O)O1,166 to 168 °C
23,FC(F)(F)Oc1ccc(-c2ccc(C=CCBr)cc2)cc1,121 to 123 °C
24,c1nnc2c3c(c(NCCN4CCCC4)nn12)CCCC3,160 to 162 °C
25,O=[N+]([O-])c1ccc2c(c1)Sc1cc(Br)ccc1N2,> 250 °C
26,FC(F)(F)c1cccc(CSc2nnc(-c3ccn4ncnc4c3)o2)c1,147 to 148 °C

# The remaining lines, values ahead:
row,melting point,Structure (SMILES)
1,157 to 158 °C,O=C(Nc1ccc(C(=O)N2CCCCc3cc(Cl)ccc32)cn1)c1ccccc1OCCCCO
2,123 to 124 °C,COC(=O)c1cc(Cl)ccc1-n1c(C)nnc1CCl
3,49 to 50 °C,COC(=O)C[C@H](O)C[C@H](O)CCc1c(-c2ccc(F)cc2)c(-c2ccccc2)c(C(=O)NCc2ccc(F)cc2)n1C(C)C
4,110 to 112 °C,CN(CCOc1ccc(C(N)=O)cc1)CCc1ccc(N)cc1
5,136 °C,CN(C)c1cccc(C(=O)NCCc2c3n(c4ccccc24)C(=O)CCC3)c1
6,253 to 254 °C,COc1cc2ncc(C#N)c(Nc3cccc(Oc4ccccc4)c3)c2cc1OC
7,80 to 84 °C,Cc1ccc(-c2cc([Si](C)(C)C)oc2-c2ccc(Cl)cc2)cc1
8,86 to 88 °C,CN(CC#CC1=Cc2ccccc2Sc2ccc(Cl)cc21)CCO
9,143 to 144 °C,CCC(CC)c1cccc(C[C@H]2C(=O)O[C@H](c3ccccc3)[C@H](c3ccccc3)N2C(=O)OC(C)(C)C)c1
10,252 °C,Cc1cnc2c(c1)n(C(C)C)c(=O)n2-c1ccc(Oc2nc3cccnc3n2C)cc1
11,58 to 70 °C,CCOC(=O)CCc1c(C)c2c(O)cc(C(C)CCCc3ccccc3)cc2oc1=O (centres undefined)
12,220 to 222 °C,Cc1ccccc1-c1nc2n(c1Br)-c1cccnc1Nc1ccccc1-2
13,180 to 181 °C,COC=C(C(=O)OC)c1csc2ccc(C=Cc3ccccc3)cc12
14,95 to 98 °C,CCOC(=O)Cc1cccc(Cn2ccc(OCc3ccc(F)cc3F)c(Br)c2=O)c1
15,150 to 155 °C,COc1ccc(C(OCC2OC(n3cnc4c(=O)[nH]c(NC(=O)Cc5ccc(Cl)c(Cl)c5)nc43)CC2O)(c2ccccc2)c2ccc(OC)cc2)cc1 (centres undefined)
16,95 to 97 °C,CC(=C(c1ccc(N(C)C)cc1)c1ccc(N(C)C)cc1)P(c1ccccc1)c1ccccc1
17,180 to 182 °C,O=c1c(-c2ccccc2)cc([N+](=O)[O-])c2n1CCc1ccsc1-2
18,180 to 185 °C,COc1ccc(C(=O)Nc2ccc(Cl)cc2)cc1NC(=S)Nc1cc(Cl)cc(Cl)c1
19,101 to 102 °C,COc1ccc(CSc2ccc([N+](=O)[O-])cc2CO)cc1
20,65 to 66 °C,CCOC(=O)N=C(OCC)c1ccccc1Cl
21,220 to 222 °C,COc1cc(/C=C/C(=O)Nc2ccccc2C(=O)O)ccc1OCc1cn(CC(=O)Nc2ccccc2)nn1
22,143 to 145 °C,COC(=O)c1cccc2nc(OCC(F)(F)F)n(Cc3ccc(-c4ccccc4C#N)cc3)c12
23,90 to 96 °C,CNc1ccc(C(=O)N(CCN2CCC(C(=O)c3ccc(F)cc3)CC2)c2cccnc2)cc1

row,melting point,Structure (SMILES)
1,71 to 73 °C,c1ccc(COCCOc2ccc(OCc3ccccc3)cc2)cc1
2,268 °C,O=C(CCc1ccccc1)Nc1ccc2c(c1)C(=O)c1cc(NC(=O)CCc3ccccc3)ccc1C2=O
3,273 °C,C#Cc1ccc(Cn2cc(-c3ccc(OC)cc3)ccc2=O)cn1
4,175 to 176 °C,c1ccc2c(CN3CCN(Cc4ccc5c(c4)OCO5)CC3)n[nH]c2c1
5,84 °C,CCCOc1cccc2c1OCN(CCc1ccccc1)C2
6,119 to 120 °C,CC(=O)Oc1cc(C(C)(C)C)ccc1C1(OC(C)=O)C(=O)c2ccccc2C1=O
7,116 to 118 °C,Cc1ccc(S(=O)(=O)OCC2Cc3cccc(-c4ccc(F)cc4F)c3O2)cc1 (centres undefined)
8,225 °C,O=c1c(-c2cccc(C(F)(F)F)c2)coc2c(O)c(O)ccc12
9,166 to 168 °C,CC1=NC(=O)C(Cc2c[nH]c3ccccc23)N(O)C1=O (centres undefined)
10,158 to 160 °C,CCN(CC)Cc1cc(Nc2ccnc3cc(Cl)ccc23)c2ccccc2c1O
11,188 to 191 °C,CC(c1ccc2ncccc2c1)n1nnc2ccc(-c3cnn(CCO)c3)nc21 (centres undefined)
12,70 to 71 °C,COC(=O)C1Oc2ccc(OC)cc2C(C)(c2ccccc2)O1 (centres undefined)
13,170 to 171 °C,O=C(O)c1ccc(OCCCCc2cc(-c3ccc(C(F)(F)F)cc3)no2)cc1
14,192 to 193 °C,Cc1ncc(C#N)c(Nc2cccc3[nH]ccc23)c1-c1cc2ccccc2o1
15,101 to 102 °C,CN1CCCC1CCOc1ccccc1CCc1cccc(C#N)c1 (centres undefined)
16,148 °C,COc1ccc(C(=O)Nc2cc(NC(=O)c3cccc(N4CCOCC4)c3)ccc2Cl)cc1OC
17,219 to 220 °C,CCOC(=O)CCC1(NC(=O)c2ccc(Cl)c(Cl)c2)C(=O)N(CC(=O)O)c2ccccc21 (centres undefined)
18,70 to 72 °C,COc1ccc(C(=O)C(=O)c2cccnc2)cc1
19,135 °C,Cc1ccc(S(=O)(=O)Oc2ccccc2NC(=O)c2cccc3[nH]ccc23)cc1
20,110 to 112 °C,COc1ccc(C(=O)c2c(Cc3ccccc3)sc3cc(OC)ccc23)cc1
21,145 to 149 °C,Cc1cc(C#N)cc(C(=O)NC(C)C)c1NC(=O)c1cc(Br)nn1-c1ccccc1Cl
22,78 °C,CC(=O)SCC(=Cc1cccc2ccccc12)C(=O)NCCC(=O)OCc1ccccc1
23,106 °C,CCOC(=O)C1CC(C)CCN1C(=O)c1ccc(Cl)c(C2(C)C(=O)N(Cc3ccc(OC)cc3OC)c3ccc(Cl)cc32)c1 (centres undefined)
